Test results: patent US9827228B2, “Opioid receptor modulators and use thereof” (priority 2015, dated 2017)
Read-outs that look alike come from different tables or passages of the source.

Target: T1, hMOR (Homo sapiens, UniProt P35372)
T1 construct: host or cells: CHO-K1
Test: cell-based
Assay type: cell-based
Settings: for AUC: AUC of [Ca2+]i fluorescence
Method: Chinese hamster ovary (CHO)-K1 cells expressing hMOR and Gα15 (CHO-K1/MOR/Gα15) were cultured in F12 medium (GIBCO) supplemented with 10 μg/mL Hygromycin B (Invivogen), 20 μg/mL Zeocin (Invivogen) and P/S/F (100 units/mL penicillin, 100 μg/mL streptomycin, 10% fetal bovine serum). The cultures were incubated at 37° C. in a humidified 5% CO2 incubator.
One day prior to running the assay, CORNING® black 96-well assay plates having a clear flat bottom were coated with a 0.1 mg/mL Poly-L-Lysine solution. CHO-K1/MOR/Gα15 cells were suspended in F12 medium and plated at a density of about 8×10^4 cells/well in 200 μL medium. Cells were incubated under a humidified atmosphere of 10% CO2 at 37° C. overnight to reach an 80-90% confluent cell monolayer before the assay. On the day of the assay, 150 μL medium was removed from each well of the plates. To each well were added FLIPR® calcium assay reagents (Molecular Devices Corporation, Sunnyvale, Calif., USA; 50 μL) dissolved in 1× assay buffer (HBSS: KCl 5 mM, KH2PO4 0.3 mM, NaCl 138 mM, NaHCO3 4 mM, Na2HPO4 0.3 mM, d-glucose 5.6 mM, with additional 20 mM HEPES and […], pH 7.4) and 2.5 mM probenecid. After incubation at 37° C. for 1 hour, a test compound, alone or together with naloxone (a MOR antagonist), was also added to each well. Using a FlexStationlll instrument (Molecular Devices Corp.), increments of the [Ca^2+]i fluorescence after robotic injection of the cell suspension were monitored at 1.52 s intervals using the excitation wavelength of 485 nm and the emission wavelength of 525 nm. The [Ca^2+]i fluorescence was measured up to 90 s after the injection. The fluorescence intensity from 6 to 12 wells of cells were averaged and the relative amount of [Ca^2+]i release was determined by integrating the AUC of the [Ca^2+]i fluorescence averages.
A CHO-K1 cell line expressing MOR and Gα15 (GenScript) was used to set up a sensitive high-throughput screen (HTS) system. […] The HTS was performed in the absence or presence of naloxone (an opioid antagonist; 20 nM), to identify AAMs.

[1] = combined with naloxone, CHO-K1/MOR/Gα15 cells
[2] = combined with naloxone, CHO-K1/MOR/Gα15 cells, read-out: EC50
[3] = EC50, combined with naloxone, CHO-K1/MOR/Gα15 cells

T1 sequence (P35372 whole entry): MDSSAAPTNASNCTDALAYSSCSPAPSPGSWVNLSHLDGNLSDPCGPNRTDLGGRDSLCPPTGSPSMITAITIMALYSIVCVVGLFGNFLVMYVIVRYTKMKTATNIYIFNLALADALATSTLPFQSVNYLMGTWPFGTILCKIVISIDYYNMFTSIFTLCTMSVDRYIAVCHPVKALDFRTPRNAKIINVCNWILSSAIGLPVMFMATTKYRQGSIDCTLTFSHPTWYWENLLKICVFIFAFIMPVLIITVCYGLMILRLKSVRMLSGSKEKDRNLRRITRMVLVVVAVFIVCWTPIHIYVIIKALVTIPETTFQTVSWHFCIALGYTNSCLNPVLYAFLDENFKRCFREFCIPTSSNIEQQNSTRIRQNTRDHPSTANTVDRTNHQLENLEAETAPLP

Compound	AUC [1]	EC50 [2]	EC50 (EC50, combined with naloxone)	EC50 [3]
Cc1nc(C)c(-c2csc(Nc3ccccc3N3CCCCC3)n2)s1 [Compound 68, 2′,4′-Dimethyl-N-[2-(1-piperidinyl)phenyl]-4,5′-bi-1,3-thiazol-2-amine]	− (−: <5000)	> 10 µM	–	–
Cc1nc(C)c(-c2csc(Nc3ccccc3N3CCOCC3)n2)s1 [Compound 70, 2′,4′-Dimethyl-N-[2-(4-morpholinyl)phenyl]-4,5′-bi-1,3-thiazol-2-amine]	− (−: <5000)	–	< 10 µM	3 to 10 µM
Cc1nc(C)c(-c2csc(Nc3ccccc3-n3cccc3)n2)s1 [Compound 72, 2′,4′-Dimethyl-N-[2-(1H-pyrrol-1-yl)phenyl]-4,5′-bi-1,3-thiazol-2-amine]	− (−: <5000)	> 10 µM	–	–
Cc1nc(C)c(-c2csc(Nc3ccc(N(C)C)cc3C)n2)s1 [Compound 75, N^1-(2′,4′-Dimethyl-4,5′-bi-1,3-thiazol-2-yl)-N^4,N^4,2-trimethyl-1,4-benzenediamine]	− (−: <5000)	> 10 µM	–	–
Cc1nc(C)c(-c2csc(Nc3cccc(Cl)c3C)n2)s1 [Compound 77, N-(3-Chloro-2-methylphenyl)-2′,4′-dimethyl-4,5′-bi-1,3-thiazol-2-amine]	− (−: <5000)	> 10 µM	–	–
Cc1nc(C)c(-c2csc(Nc3ncccc3C)n2)s1 [Compound 79, 2′,4′-Dimethyl-N-(3-methyl-2-pyridinyl)-4,5′-bi-1,3-thiazol-2-amine]	− (−: <5000)	> 10 µM	–	–
CCc1ccc(C)nc1Nc1nc(-c2sc(C)nc2C)cs1 [Compound 82, N-(3-Ethyl-6-methyl-2-pyridinyl)-2′,4′-dimethyl-4,5′-bi-1,3-thiazol-2-amine]	− (−: <5000)	> 10 µM	–	–
COc1cccc(Nc2nc(-c3sc(C)nc3C)cs2)c1C [Compound 85, N-(3-Methoxy-2-methylphenyl)-2′,4′-dimethyl-4,5′-bi-1,3-thiazol-2-amine]	+ (+: >5000)	–	< 10 µM	3 to 10 µM
Cc1nc(C)c(-c2csc(Nc3cccc(C(F)(F)F)c3C)n2)s1 [Compound 87, 2′,4′-Dimethyl-N-[2-methyl-3-(trifluoromethyl)phenyl]-4,5′-bi-1,3-thiazol-2-amine]	− (−: <5000)	> 10 µM	–	–
Cc1nc(C)c(-c2csc(Nc3cccc(O)c3C)n2)s1 [Compound 89, 3-[(2′,4′-Dimethyl-4,5′-bi-1,3-thiazol-2-yl)amino]-2-methylphenol]	− (−: <5000)	> 10 µM	–	–
CCc1ccccc1Nc1nc(-c2sc(-c3ccccc3)nc2C)cs1 [Compound 92, N-(2-Ethylphenyl)-4′-methyl-2′-phenyl-4,5′-bi-1,3-thiazol-2-amine]	− (−: <5000)	> 10 µM	–	–
Cc1ccc(Nc2nc(-c3sc(-c4ccccc4)nc3C)cs2)c(C)c1 [Compound 93, N-(2,4-Dimethylphenyl)-4′-methyl-2′-phenyl-4,5′-bi-1,3-thiazol-2-amine]	− (−: <5000)	> 10 µM	–	–
CCc1ccccc1Nc1nc(-c2sc(-c3ccc(Cl)cc3)nc2C)cs1 [Compound 94, 2′-(4-Chlorophenyl)-N-(2-ethylphenyl)-4′-methyl-4,5′-bi-1,3-thiazol-2-amine]	− (−: <5000)	> 10 µM	–	–
CCc1nc(C)c(-c2csc(Nc3ccccc3CC)n2)s1 [Compound 95, 2′-Ethyl-N-(2-ethylphenyl)-4′-methyl-4,5′-bi-1,3-thiazol-2-amine]	+ (+: >5000)	–	< 10 µM	3 to 10 µM
CCc1ccccc1Nc1nc(-c2sc(C)nc2C)c(C)s1 [Compound 98, N-(2-Ethylphenyl)-2′,4′,5-trimethyl-4,5′-bi-1,3-thiazol-2-amine]	− (−: <5000)	> 10 µM	–	–
CCc1ccccc1Nc1nc(-c2sc(N)nc2C)cs1 [Compound 100, N^2-(2-ethylphenyl)-4′-methyl-4,5′-bi-1,3-thiazole-2,2′-diamine]	− (−: <5000)	> 10 µM	–	–
CCc1ccccc1Nc1nc(-c2oc(C)nc2C)cs1 [Compound 102, 4-(2,4-Dimethyl-1,3-oxazol-5-yl)-N-(2-ethylphenyl)-1,3-thiazol-2-amine]	+ (+: >5000)	–	< 10 µM	3 to 10 µM
Cc1ccc(Nc2nc(-c3oc(C)nc3C)cs2)c(C)c1 [Compound 105, 4-(2,4-Dimethyl-1,3-oxazol-5-yl)-N-(2,4-dimethylphenyl)-1,3-thiazol-2-amine]	+ (+: >5000)	> 10 µM	–	–

Compound	AUC [1]	EC50 [2]	EC50 (EC50, combined with naloxone)	EC50 [3]
Cc1cc(C)c(Nc2nc(-c3oc(C)nc3C)cs2)c(C)c1 [Compound 106, 4-(2,4-Dimethyl-1,3-oxazol-5-yl)-N-(2,4,6-trimethylphenyl)-1,3-thiazol-2-amine]	+ (+: >5000)	–	< 10 µM	3 to 10 µM
CCc1ccccc1Nc1ncc(-c2sc(C)nc2C)o1 [Compound 107, 5-(2,4-Dimethyl-1,3-thiazol-5-yl)-N-(2-ethylphenyl)-1,3-oxazol-2-amine]	+ (+: >5000)	> 10 µM	–	–
CCc1ccccc1Nc1ncc(-c2oc(C)nc2C)o1 [Compound 109, 5-(2,4-Dimethyl-1,3-oxazol-5-yl)-N-(2-ethylphenyl)-1,3-oxazol-2-amine]	− (−: <5000)	> 10 µM	–	–
COC(=O)Cc1cnc(Nc2nc(-c3sc(C)nc3C)cs2)s1 [Compound 111, Methyl {2-[(2′,4′-dimethyl-4,5′-bi-1,3-thiazol-2-yl)amino]-1,3-thiazol-5-yl}acetate]	− (−: <5000)	> 10 µM	–	–
Cc1csc(Nc2nc(-c3sc(C)nc3C)cs2)n1 [Compound 114, 2′,4′-Dimethyl-N-(4-methyl-1,3-thiazol-2-yl)-4,5′-bi-1,3-thiazol-2-amine]	− (−: <5000)	> 10 µM	–	–
Cc1nc(C)c(-c2csc(Nc3nc4ccccc4s3)n2)s1 [Compound 117, N-(1,3-Benzothiazol-2-yl)-2′,4′-dimethyl-4,5′-bi-1,3-thiazol-2-amine]	− (−: <5000)	> 10 µM	–	–
CCc1ccccc1Nc1nc(-c2ccc(C)cc2C)cs1 [Compound 120, 4-(2,4-Dimethylphenyl)-N-(2-ethylphenyl)-1,3-thiazol-2-amine]	− (−: <5000)	> 10 µM	–	–
CCc1ccccc1Nc1nc(-c2ccc(C)cc2)cs1 [Compound 121, N-(2-Ethylphenyl)-4-(4-methylphenyl)-1,3-thiazol-2-amine]	− (−: <5000)	> 10 µM	–	–
CCc1ccccc1Nc1nc(-c2ccc3c(c2)OCCCO3)cs1 [Compound 122, 4-(3,4-Dihydro-2H-1,5-benzodioxepin-7-yl)-N-(2-ethylphenyl)-1,3-thiazol-2-amine]	− (−: <5000)	> 10 µM	–	–
CCc1ccccc1Nc1nc(-c2ccccn2)cs1 [Compound 123, N-(2-Ethylphenyl)-4-(2-pyridinyl)-1,3-thiazol-2-amine]	− (−: <5000)	> 10 µM	–	–
CCc1ccccc1Nc1nc(-c2cccs2)cs1 [Compound 124, N-(2-Ethylphenyl)-4-(2-thiophenyl)-1,3-thiazol-2-amine]	− (−: <5000)	> 10 µM	–	–
CCc1ccccc1Nc1nc(-c2nccs2)cs1 [Compound 126, N-(2-Ethylphenyl)-2,4′-bi-1,3-thiazol-2′-amine]	− (−: <5000)	> 10 µM	–	–
CCc1ccccc1Nc1nc2c(s1)Cc1ccccc1-2 [Compound 127, N-(2-Ethylphenyl)-8H-indeno[1,2-d][1,3]thiazol-2-amine]	− (−: <5000)	> 10 µM	–	–
CCOC(=O)c1cc(-c2csc(Nc3ccccc3CC)n2)on1 [Compound 128, Ethyl 5-{2-[(2-ethylphenyl)amino]-1,3-thiazol-4-yl}-1,2-oxazole-3-carboxylate]	− (−: <5000)	> 10 µM	–	–
CCc1ccccc1Nc1nc(-c2cc(-c3ccccc3)no2)cs1 [Compound 129, N-(2-Ethylphenyl)-4-(3-phenyl-1,2-oxazol-5-yl)-1,3-thiazol-2-amine]	− (−: <5000)	> 10 µM	–	–
Cc1nc(C)c(-c2csc(N)n2)s1 [Compound 130, 2′,4′-Dimethyl-4,5′-bi-1,3-thiazol-2-amine]	− (−: <5000)	> 10 µM	–	–
CCc1ccccc1Nc1nccs1 [Compound 131, N-(2-Ethylphenyl)-1,3-thiazol-2-amine]	− (−: <5000)	> 10 µM	–	–
